# Experimental data taken from patent publication US4599204A, “Oxalylamides useful as dental antiplaque agents and inhibitors of connective tissue destruction” (American Cyanamid Company, priority 1985, dated 1986).
# Counter-ions that a name gives are not always drawn.
# Tests used:
# [1] = test system: collagenase; conditions: literature / U.S. Pat. No. 4,297,372; cited from earlier work
# [2] = target: T1, human skin fibroblast collagenase (Homo sapiens, UniProt P03956); experiment: Collagenase Assay, Test Code 006: degradation of 14C-labeled native collagen fibrils by collagenase; assay type: biochemical; conditions: ratio of weight (μg) for 50% inhibition over that of 6,6'-[ureylenebis(m-phenylenecarbonylimino)]bis[4-hydroxy-2-naphthalenesulfonic acid]disodium salt; test conc.: 30 μg/ml; 37° C., 16 hours; >1 = less active
# T1 construct: endogenous in cells; host or cells: human skin fibroblasts
# T1 sequence (P03956 100-469): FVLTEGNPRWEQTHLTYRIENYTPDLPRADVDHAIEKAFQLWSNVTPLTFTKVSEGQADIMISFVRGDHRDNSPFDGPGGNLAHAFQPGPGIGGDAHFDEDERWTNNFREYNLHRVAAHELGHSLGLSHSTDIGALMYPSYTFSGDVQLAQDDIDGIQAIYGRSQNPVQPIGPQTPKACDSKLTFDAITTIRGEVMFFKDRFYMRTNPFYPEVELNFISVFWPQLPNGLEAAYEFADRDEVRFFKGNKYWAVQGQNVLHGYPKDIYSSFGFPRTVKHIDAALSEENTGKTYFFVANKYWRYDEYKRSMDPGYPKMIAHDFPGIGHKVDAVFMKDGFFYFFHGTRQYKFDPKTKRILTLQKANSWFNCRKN
# Method: (i) Collagenase Assay--Test Code 006
# A collagenase assay was performed by a modification of the method of Harper, et al., Biochem., 10, 3035 (1971). In a typical assay (total volume of 0.45 ml), 100 μl of the activated enzyme was added to the ^14 C-labeled collagen fibrils (250 μl) followed by 100 μl of 50 mM cacodylate, pH 7.4, containing 5 mM calcium chloride. After incubation at 37° C. for 16 hours, the tubes were centrifuged in a Beckman microfuge for five minutes at full speed. An aliquot (200 μl) of the supernatant, representing collagenase digestion products of the fibril, was assayed for radioactivity. The effect of the test compound on collagen degradation by collagenase was examined as follows:
# Varying concentrations of the test compound (in distilled water) were added to the assay tubes containing active collagenase (total volume 450 μl) and after 16 hours the amount of radioactivity in the supernatant was determined. Appropriate blanks and trypsin controls were run in parallel.
# The result is expressed as an ID50 collagenase value which represents a ratio of the weight (μg) of the representative compound required for 50% inhibition of collagenase over the weight (μg) of 6,6,-[ureylenebis(m-phenylenecarbonylimino)]bis[4-hydroxy-2-naphthalenesulfonic acid]disodium salt required for 50% inhibition of collagenase.
# [3] = Binding (competition) assay with 14C-6,6'-[ureylenebis(m-phenylenecarbonylimino)]bis[4-hydroxy-2-naphthalenesulfonic acid]disodium salt on tooth powder; conditions: relative to 6,6'-[ureylenebis(m-phenylenecarbonylimino)]bis[4-hydroxy-2-naphthalenesulfonic acid]disodium salt; 1 mg tooth powder, PBS, 37° C., 60 minutes; >1 = less efficient
# Excerpt: Using (radioactive) ^14 C-6,6'-[ureylenebis(m-phenylenecarbonylimino)]bis[4-hydroxy-2-naphthalenesulfonic acid]disodium salt a binding (competition) assay procedure is established which involves an insoluble substrate such as tooth powder which will bind the ^14 C-6,6'-[ureylenebis(m-phenylenecarbonylimino)]bis[4-hydroxy-2-naphthalenesulfonic acid]disodium salt. The amount of ^14 C-6,6'-[ureylenebis(m-phenylenecarbonylimino)]bis[4-hydroxy-2-naphthalenesulfonic acid]disodium salt bound is determined by washing away the unbound radioactive compound and counting CPM (counts per minute) of the insoluble tooth powder/^14 C-6,6'-[ureylenebis(m-phenylenecarbonylimino)]bis[4-hydroxy-2-naphthalenesulfonic acid]disodium salt complex. […] The inhibiting effect of the test compound on binding compared to non-radioactive 6,6'-[ureylenebis(m-phenylenecarbonylimino)]bis[4-hydroxy-2-naphthalenesulfonic acid]disodium salt was determined as follows: A one mg amount of tooth powder was incubated in one ml of phosphate buffered saline (PBS) with 10 μg of ^14 C-6,6'-[ureylenebis(m-phenylenecarbonylimino)]bis[4-hydroxy-2-naphthalenesulfonic acid]disodium salt and varying dose amounts (ranging from 0 to 2 mg) of the same cold (non-radioactive) compound. […]
# [4] = Binding to insoluble collagenous structures
# [5] = test system: corneal ulceration; conditions: alkali burned rabbit, applied to the eye; cited from earlier work
# [6] = mechanistic studies; cited from earlier work
# [7] = test system: corneal ulceration; conditions: human; cited from earlier work
compound,measurement,setting,value
O[C@H](CS)[C@H](O)CS (racemic) [dithiothreitol],collagenase inhibition (in words),[1],collagenase inhibitors
"c1cnc2c(c1)ccc1cccnc12 [1,10-phenanthroline]",collagenase inhibition (in words),[1],collagenase inhibitors
"O=C(Nc1cccc(C(=O)Nc2ccc3cc(S(=O)(=O)O)cc(O)c3c2)c1)C(=O)Nc1cccc(C(=O)Nc2ccc3cc(S(=O)(=O)O)cc(O)c3c2)c1 [6,6'-[Oxalylbis(imino-m-phenylenecarbonylimino)]bis-[4-hydroxy-2-naphthalenesulfonic acid]disodium salt]",ID50 Collagenase Ratio,[2],1.10
same,ID50 Binding Ratio,[3],1.00
"O=C(Nc1cccc(C(=O)Nc2ccc3cc(S(=O)(=O)O)cc(O)c3c2)c1)Nc1cccc(C(=O)Nc2ccc3cc(S(=O)(=O)O)cc(O)c3c2)c1 [6,6'-[ureylenebis(m-phenylenecarbonylimino)]bis[4-hydroxy-2-naphthalenesulfonic acid]disodium salt]",binding to insoluble collagenous structures,[4],"will bind to insoluble collagenous structures such as teeth, dentin, gingiva and the like"
same,"character of binding (saturability, reversibility)",[4],saturable and reversible
same,collagenase inhibition (in words),[1],established as an inhibitor of the degradation of collagen
O=C([O-])CN(CCN(CC(=O)[O-])CC(=O)[O-])CC(=O)[O-].[Ca+2].[Ca+2] [Calcium ethylenediaminetetraacetate],reduction of frequency of ulceration,[5],reduce the frequency of ulceration
F [Fluoride],binding to enamel,[6],binds to enamel
Cc1ccc(C(=O)Nc2ccc(S(=O)(=O)O)c3cc(S(=O)(=O)O)cc(S(=O)(=O)O)c23)cc1NC(=O)c1cccc(NC(=O)Nc2cccc(C(=O)Nc3cc(C(=O)Nc4ccc(S(=O)(=O)O)c5cc(S(=O)(=O)O)cc(S(=O)(=O)O)c45)ccc3C)c2)c1 [Suramin],collagenase inhibition (in words),[1],not inhibiting the action of collagenase
CC(=O)N[C@@H](CS)C(=O)O [acetylcysteine],reduction of frequency of ulceration,[5],reduce the frequency of ulceration
same,effectiveness in treatment of acute and chronic corneal ulceration,[7],effective in the treatment of acute and chronic corneal ulceration
N[C@@H](CS)C(=O)O [cysteine],effectiveness in treatment of acute and chronic corneal ulceration,[7],effective in the treatment of acute and chronic corneal ulceration
same,collagenase inhibition (in words),[1],collagenase inhibitors
Cc1cc(-c2ccc(/N=N/c3c(S(=O)(=O)O)cc4cc(S(=O)(=O)O)cc(N)c4c3O)c(C)c2)ccc1/N=N/c1c(S(=O)(=O)O)cc2cc(S(=O)(=O)O)cc(N)c2c1O [trypan blue],collagenase inhibition (in words),[1],"inhibiting the activity of collagenase, or a proteinase contaminant in the collagenase preparation"
sodium auriothiomalate,collagenase inhibition (in words),[1],collagenase inhibitors
α2 -macroglobulin: Naturally occurring collagenase inhibitors include the serum components α2 -macroglobulin,collagenase inhibition (in words),[1],collagenase inhibitors
